Literature values, collected in patent US9650678B2, “Methods for identifying an increased risk of anthracycline-related cardiotoxicity” (CITY OF HOPE, priority 2012, dated 2017).

How the values were obtained:
[1] = factor that reflects the drug's cardiotoxic potential
patients = conditions: package insert, doxorubicin hydrochloride injection (Teva)
CBR1 = biological target: T1, CBR1 (Homo sapiens, UniProt P16152)
T1 sequence (P16152 1-277): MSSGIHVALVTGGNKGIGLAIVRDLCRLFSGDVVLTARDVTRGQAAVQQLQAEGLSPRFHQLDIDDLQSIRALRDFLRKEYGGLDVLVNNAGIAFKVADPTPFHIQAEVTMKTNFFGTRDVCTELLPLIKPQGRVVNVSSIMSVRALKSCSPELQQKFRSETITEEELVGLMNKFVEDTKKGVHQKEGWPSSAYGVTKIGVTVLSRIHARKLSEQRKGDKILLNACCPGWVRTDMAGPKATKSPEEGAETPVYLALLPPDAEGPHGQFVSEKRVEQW

| SMILES | Conversion factor to Doxorubicin Isotoxic Dose [1] | total cumulative dose in excess of which risk of potentially fatal congestive heart failure increases rapidly (patients) | rate of doxorubicinol synthesis, fold higher (CBR1) [fold] | synthesis of doxorubicinol, times faster (CBR3) [times] |
| --- | --- | --- | --- | --- |
| COc1cccc2c1C(=O)c1c(O)c3c(c(O)c1C2=O)C[C@@](O)(C(C)=O)C[C@@H]3O[C@H]1C[C@H](N)[C@H](O)[C@H](C)O1 [Daunomycin] | 0.833 (⅚) |  |  |  |
| COc1cccc2c1C(=O)c1c(O)c3c(c(O)c1C2=O)C[C@@](O)(C(=O)CO)C[C@@H]3O[C@H]1C[C@H](N)[C@H](O)[C@H](C)O1 [Doxorubicin] | 1 | greater than 400 mg/m^2 |  |  |
| COc1cccc2c1C(=O)c1c(O)c3c(c(O)c1C2=O)C[C@@](O)(C(=O)CO)C[C@@H]3O[C@H]1C[C@H](N)[C@@H](O)[C@H](C)O1 [Epirubicin] | 0.67 (⅔) |  |  |  |
| CC(=O)[C@]1(O)Cc2c(O)c3c(c(O)c2[C@@H](O[C@H]2C[C@H](N)[C@H](O)[C@H](C)O2)C1)C(=O)c1ccccc1C3=O [Idarubicin] | 5 |  |  |  |
| COc1cccc2c1C(=O)c1c(O)c3c(c(O)c1C2=O)C[C@@](O)([C@@H](O)CO)C[C@@H]3O[C@H]1C[C@H](N)[C@H](O)[C@H](C)O1 [doxorubicinol] |  |  | 1.5 | 2.6 |
